Laboratory results taken from US5591717A, “Branched apogenic peptide for inducing apoptosis” (priority 1994, dated 1997).

Tests used:
HL60 cells [1] = assay: Sodium butyrate or retinoic acid with sub-apoptotic CSarma VR5-BAP in HL60 cells; format: cell-based, human; conditions: 1 μM agent, 2, 3 and 5 days
Procedure: At 1 μM sodium butyrate and retinoic acid induce monocytic and granulocytic differentiation in HL60 cells, respectively. Neither the sodium butyrate nor retinoic acid is specifically associated with calcium transport. HL60 cells were simultaneously exposed to such […] dose (1 μM) of CSarma VR5-BAP and to either 1 μM sodium butyrate or 1 μM retinoic acid. Cells were cultured for 5 days and evaluated by inverted phase contrast microscopy and light microscopic examination of Wright-Giemsa-Stained cytrocentrifuge preparation. Samples were taken at 2, 3 and 5 days.

HL60 cells [2] = assay: Augmentation by 1,25-dihydroxy vitamin D3 in HL60 cells, microscopy; format: cell-based, human; conditions: simultaneous exposure
Procedure: At 1 μM, 1,25-dihydroxy vitamin D3 will drive differentiation of HL60 cells into monocytes; overt differentiation requires 72-96 hours. Accordingly, HL60 cell cultures were simultaneously exposed to a subapoptotic dose of 1 μM CSarma VR5-BAP and 0.5 or 1.0 μM 1, 25-dihydroxy vitamin D3. The cultures were then evaluated by inverted phase microscopy of tissue culture plates and by light microscopic examination of Wright-Giemsa stained cytocentrifuge preparations.

[3] = tested on: HL60, K562, 3201 and H9 cells
Procedure: A commonly used anti-apogenic compound is zinc. HL60, K562, 3201 and H9 cells were exposed to 1, 2, 4, 7.9, 15.7, 31.3, 62.5, 125, 250, 500, and 1000 μM zinc sulfate and 6 μM CSarma VR5-BAP. The cells were cultured for 24 and 8 hours.

HL60 cell cultures = assay: Heparin reversal of CSarma VR5-BAP effect in HL60 cells, MTT and INDO-1; format: cell-based, human
Procedure: HL60 cell cultures were treated with 6 μM CSarma VR5-BAP and 0.3 U/ml, or 3.0 U/ml heparin. Control cell cultures received either no polypeptide or 0.3 U/ml or 3.0 U/ml heparin. Cell growth was determined at 1 and 2 days as assessed by MTT cell proliferation/viability assay. The mobilization of intracellular calcium was assessed by INDO-1 staining and anchored cell fluorescent microscopy.

For `CC1=C(/C=C/C(C)=C/C=C/C(C)=C/C(=O)O)C(C)(C)CCC1` [retinoic acid], the “apoptosis on simultaneous treatment with 1 μM CSarma VR5-BAP” value (HL60 cells [1]) was “did not cause apoptosis”.

`C=C1/C(=C\C=C2/CCC[C@]3(C)[C@@H]([C@H](C)CCCC(C)(C)O)CC[C@@H]23)C[C@@H](O)C[C@@H]1O` [1,25-dihydroxy vitamin D3, 1,25-dihydroxycholecalciferol] was tested, and the “increase of sensitivity of HL60 cells to CSarma VR5-BAP” value (HL60 cells [2]) was “six-fold”.

For `O=S(=O)([O-])[O-].[Zn+2]` [zinc sulfate], the “concentration with direct toxicity” value [3] was “greater than 31.3 μM” and the “reversal of CSarma VR5-BAP induced apoptosis” value ([3]; 1 to 1000 μM zinc sulfate with 6 μM CSarma VR5-BAP) was “failed to reverse”.

In the case of heparin, the “mobilization of intracellular calcium” value (HL60 cell cultures; INDO-1 staining) is reported as “prevents mobilization of intracellular calcium” and the “concentration inhibiting the growth suppression of 6 μM CSarma VR5-BAP” value (HL60 cell cultures; MTT, 1 and 2 days) is reported as “greater than or equal to 0.3 U/ml”.

`CCCC(=O)[O-].[Na+]` [sodium butyrate] was tested, and the “apoptosis on simultaneous treatment with 1 μM CSarma VR5-BAP” value (HL60 cells [1]) was “did not cause apoptosis”.
